Laboratory results published in patent US20170369414A1, “O-Quinone Compounds as Agents Neutralising Nitric Oxide” (Institut des Substances Végétales, priority 2015, published 2017).

Test: Method for evaluating the neutralization of nitric oxide (amperometric probe, real time)
Conditions: phosphate buffer pH 7.4, 25° C., between T1 and T2=T1+30 s, corrected for solvent control
Method: For this, the nitric oxide is prepared in a separated container by achieving reduction of sodium nitrite with ferrous sulfate and carry away with a nitrogen gas stream into another container containing the product to be tested in solution in a buffer. In this solution, is placed an amperometric probe which measures in real time the current produced by the presence of nitric oxide in solution.
Nitric oxide is prepared extemporaneously in a container A, obturated with a flexible polymeric plug through which pass an entering tubing and an exiting tubing, with an inner diameter comprised between 50 μm and 300 μm, but particularly of 100 μm (cf. FIG. 1), with a volume comprised between 10 ml and 100 ml, but particularly of 30 ml, by adding a volume comprised between 0.1 and 2 ml, but particularly of 0.5 ml of an aqueous solution of sodium nitrite (NaNO2, ref. Sigma-Aldrich 237213) at a concentration comprised between 0.10% and 2.00% but particularly of 0.70%, at a volume comprised between 5 ml and 80 ml of the following aqueous solution:
The container B in which is measured the nitric oxide is a container opaque to light, with a double jacket allowing circulation of water maintaining the temperature at 25° C., obturated with a plug through which pass the tubing stemming from the container A and an exhaust tubing (cf. FIG. 1) with a volume comprised between 10 ml and 100 ml, preferably 30 ml which receives a volume comprised between 5 ml and 80 ml, preferably 20 ml, of an aqueous solution of phosphate buffer at pH 7.4.
Once they are mixed, the solutions are stirred for the whole period of the measurement with a magnetic stirrer, in container A and in container B.
Nitrogen gas is admitted at a flow rate comprised between 20 ml/min and 120 ml/min, preferably 80 ml/min in the bottom of the container A. The nitrogen thereby carries away the nitric oxide through the exiting tubing of container A as far as into container B where it is measured with a device provided for this purpose equipped with an amperometric probe provided with a specific membrane (apparatus of ref. TBR 1025 from World Precision Instruments, probe ISO-NOP). The probe thereby delivers a variable current between 10 and 1,000 nA proportional to the concentration of nitric oxide in the tested solution, of the order of magnitude of μM. The electric current produced by the probe under the influence of nitric oxide is recorded with a suitable device.
Before any measurement, the probe is calibrated by measuring the current produced by releasing known increasing amounts of nitric oxide. It is thus checked that there exists a linear relationship between the electric current produced by the probe and the molar concentration of nitric oxide and the correspondence between this electric current and the molar concentration of nitric oxide is determined. For this, 20 ml of the following aqueous solution is placed in the container B disconnected from the container A during the calibration period:
50 μl, 100 μl, 150 μl and 200 μl of a solution of sodium nitrite (NaNO2, ref. Sigma-Aldrich 237213) are then successively added to a concentration of 360 μM.
The curve giving the correspondence between the nitric oxide concentration in the reaction medium and the electric intensity produced by the probe expressed in nA is plotted for each addition of the nitric oxide solution.
During a typical measurement, 20 ml of the ferrous sulfate solution are placed in the container A and 20 ml of phosphate buffer at pH 7.4 are placed in the container B. In the container A, nitrogen gas is admitted for 10 mins, which passes in transit towards the container B, in order to remove the dissolved oxygen present in the solutions of the containers A and B. After these 10 mins, the recording of the measurement of nitric oxide is launched.
At time T0, the sodium nitrite solution is injected into the container A through the flexible polymeric plug by means of a syringe equipped with a needle.

Row | Compound | E, neutralization effect of nitric oxide (nitric oxide neutralized per second and per mg of product) [µM/s/mg]
1 | O=C(O)/C=C/c1ccc(O)c(O)c1 [Caffeic acid] | 0.957
2 | O=c1cc(-c2ccc(O)c(O)c2)oc2cc(O)cc(O)c12 [Luteolin] | 0.174
3 | O.O.O=c1c(O)c(-c2ccc(O)c(O)c2)oc2cc(O)cc(O)c12 [Quercetin, Quercetin dihydrate] | 0.087
4 | O=C(/C=C/c1ccc(O)c(O)c1)O[C@H](Cc1ccc(O)c(O)c1)C(=O)O [Rosmarinic acid] | 0.043
5 | C[C@@H]1O[C@@H](O[C@@H]2[C@@H](O)[C@H](OCCc3ccc(O)c(O)c3)O[C@H](CO)[C@H]2OC(=O)/C=C/c2ccc(O)c(O)c2)[C@H](O)[C@H](O)[C@H]1O [Verbascoside] | 0.058
6 | O=C(O)/C=C\C1=CC(=O)C(=O)C=C1 [caffeoyl-quinone, ortho-quinone of caffeic acid] | 24.36
7 | O=C(O)/C=C/c1ccc(O)cc1 [p-coumaric acid] | 0.13
8 | (+) catechin hydrate | 0.13
